Data taken from patent publication US12642809B2, “Fucosylation and immune modulation in cancer” (H. LEE MOFFITT CANCER CENTER AND RESEARCH INSTITUTE, INC., priority 2019, dated 2026).
“Also recorded” adds a separate entry of the source.

Experiments:
[1] = tested on: SM1 melanoma tumors; test: SM1 melanoma tumors in C57BL/6 mice fed control or L-fucose water; format: in vivo, mouse
Protocol: (§1) Tumors of SW1 or SMI melanoma cells from C3H/HeJ or C57BL/6 mice, respectively) were digested using 1× tumor digest buffer (0.5 mg/ml. Collagenase I, 0.5 mg/ml. Collagenase IV, 0.25 mg/ml. Hyalyronidase V. 0.1 mg/ml. DNAse I in HBSS (Millipore Sigma (St. Louis, MO)). Tumors were homogenized using the Miltenyi MACs dissociator. Red blood cells were lysed using ACK lysis buffer (Life Technologies, (Grand Island, NY)). Tumor homogenate cells were counted using a standard hemocytometer. (7) Flow Cytometry (a) TIL Profiling:
(§2) Single-cell suspensions from tumor and spleen tissue were stained with Live/Dead Zombie NIR (Biolegend, (San Diego, CA)) at 1:1,000 in PBS for 20 min. Cell suspensions were spun down and stained with the following antibodies: APC anti-mouse CD3 (0.5 μg/mL, BD Biosciences (San Jose, CA)), Pacific Blue anti-mouse CD4 ([…], BD Biosciences (San Jose, CA)), BV785 anti-mouse CD8 (0.5 μg/mL, BD Biosciences (San Jose, CA)), PerCP anti-mouse CD25 ([…], BD Biosciences (San Jose, CA)), FITC anti-mouse F4/80 (0.5 μg/mL, BD Biosciences (San Jose, CA)), PeCy7 anti-mouse CD11c (0.5 μg/mL, BD Biosciences (San Jose, CA)), PE anti-mouse NK1.1 (0.5 μg/mL, BD Biosciences (San Jose, CA)), PE anti-mouse DX5 (0.5 μg/mL, BD Biosciences (San Jose, CA)), PerCP-Cy5.5 anti-mouse CD11b (0.5 μg/mL, BD Biosciences (San Jose, CA)). After staining, the cells were washed and fixed (2% formaldehyde), followed by another wash and flow cytometric analysis. The compensation controls were prepared using 0.5 μg/ml. of each antibody with beads UltraComp eBeads™, (ThermoFisher Scientific (Waltham, MA)). All samples were subject to flow cytometric analysis using a LSR Flow Cytometer (BD Biosciences (San Jose, CA)). Flow cytometric data was further analyzed using FlowJo™ analysis software (BD Biosciences (San Jose, CA)). TIL profiles were determined as a measure of TIL subpopulations per gram of tumor tissues or % of total splenocytes.
(§3) FFPE mouse tumor sections were immunostained with FITC-conjugated AAL lectin (0.4 μg/mL, Vector Laboratories (Burlingame, CA)), rabbit anti-Mart-1 (0.2 μg/mL, Millipore Sigma (St. Louis, MO), and rabbit anti-S100 (0.2 μg/mL, Agilent Technologies (Santa Clara, CA)), followed by AlexaFluor 594 donkey anti-rabbit secondary antibody (0.05 μg/mL, ThermoFisher Scientific (Waltham, MA)). The slides were mounted with VECTASHIELD®+DAPI (Vector Laboratories (Burlingame, CA)). Microscopy images were acquired using a Keyence BZ-X710 microscope (Osaka, Japan), and images were measured for AAL-positive signal within MARTI-/S 100-positive regions (designated as melanoma regions of interest) using FIJI software (NIH). Statistical analysis was performed using GraphPad Prism™ (San Diego, CA).
Four-to-six-week-old female C3HeN and male C57BL6 mice were purchased from Charles Rivers Laboratories for the indicated experiments. Four-to-six-week-old male NSG mice from the Lau laboratory breeding colony were used for the indicated experiments. Mice were housed in the Comparative Medicine Facility at H. Lee Moffitt Cancer Center and Research Institute. Mouse tumor volumes were measured using length, width and depth divided by 2. Generally, 10 mice were assigned to each indicated treatment cohort, and 1×10^6 melanoma cells were subcutaneously injected into the right rear flanks of the recipient mice. At each experimental endpoint, mice were humanely euthanized using CO2 inhalation in accordance to the American Veterinary Medical Association guidelines. […] All experiments were approved by the Institutional Animal Care and Use Committee (IACUC) in accordance with the National Research Council guidelines.
SW1 or SMI mouse melanoma cells were injected into syngeneic C3H/HeN (or NSG) female or C57BI/6 male mice, respectively. […]

[2] = tested on: SW1 melanoma tumors; test: SW1 melanoma tumors in C3H/HeN mice fed control or L-fucose water; format: in vivo, mouse; conditions: for reduced tumor growth: 100 mM L-fucose in drinking water from ~150 mm^3
Protocol: To determine which immune cell populations were affected by L-fucose, another mouse melanoma model treated with control or L-fucose-supplemented water was used. First, 1.25×10^6 SW1 mouse melanoma cells were injected into the back right flanks of the mice and allowed the tumors to grow to 150 mm^3. At 150 mm^3 (14 days), 100 mM L-fucose was administered via the drinking water to half of the mice. Tumor growth was monitored (FIGS. 3A and 3B). Total and specific subpopulations of tumor-infiltrating lymphocytes were assessed by cell flow cytometric analysis (FIGS. 3C and 3D). Assessed populations included F4/80 (macrophage)-, Gr-1 (MDSCs)-, Cd11c (Dendritic cells)-, and DX5 (NK cells)-positive cells. For T-cells, we probed for CD3 (general T-cell marker) and further for CD4 and CD8 (for those T cell subpopulations). Of the CD4-positive cells, CD25 positive cells was used to elucidate the T regulatory cells. […] Both CD4 and CD8 positive T cells (CD3+ cells) increased in response to fucose. However, myeloid derived suppressor cells (MDSCs) decreased in response to dietary fucose supplementation.
as §1, §2, §3
Four-to-six-week-old female C3HeN and male C57BL6 mice were purchased from Charles Rivers Laboratories for the indicated experiments. […]

[3] = 100 mM L-fucose in drinking water
[4] = empty vector-expressing SW1 tumors
[5] = vs control diet, listed as L-fuc

SMILES: C[C@H](O)[C@@H](O)[C@@H](O)[C@H](O)C=O [L-fucose]
- decreased tumor volume [1, 3]: ~60%
- increase in tumor fucosylation [1, 3]: ~4 fold
- absolute counts of each TIL subpopulation ([1]; flow cytometry): significantly increased
- increase in CD3+ T cell subpopulation ([1]; flow cytometry): ~15 fold
- increase in CD4+ and CD8+ T cells ([1]; flow cytometry): 10-100 fold
- increase in total TILs ([1]; flow cytometry): ~10 fold
- splenic lymphocyte profiles ([1]; flow cytometry): did not significantly alter
- increase in tumor fucosylation [2, 3]: ~2.25 fold
- reduced tumor growth [2]: > 65%
- reduced tumor growth ([2]; listed as L-fuc): ~50%
- increase in total TIL counts / infiltrating immune cells per gram of tumor ([2]; 100 mM L-fucose in drinking water, flow cytometry): 10-50 fold
- reduced growth of EV tumors [2, 4]: ~50%
- total TILs in EV tumors [2, 4]: doubling
- splenic lymphocyte profiles ([2]; flow cytometry): without significant changes
- additive effect of L-fuc in mFuk tumors ([2]; mFuk-expressing SW1 tumors): No additive effects
- absolute counts of each TIL subpopulation ([2]; vs control diet): increased
- intratumoral CD4+ and CD8+ T cells ([2]; vs control diet): increased; also recorded: doubled
- myeloid derived suppressor cells (MDSCs) in tumor ([2]; vs control diet): decreased
- overall immune infiltration of tumors ([2]; vs control diet): increased
- intratumoral CD4+ and CD8+ T cells [2, 5]: doubling
- myeloid derived suppressor cells (MDSCs) in tumor [2, 5]: either decreased or low
